In ChEMBL document CHEMBL3272256, “Antimalarials. 11. 2-Vinylogs of substituted 2-aryl-4-quinoline amino alcohols” (J Med Chem, 1976):
Calls of active or inactive are those of the source. The rule behind the calls is not given here.

Legend:
Assay type in all cases: functional, organism-based
Plasmodium berghei [1] = experiment: Antimalarial activity against Plasmodium berghei infected in mouse assessed as complete cure at 40 mg/kg; parameters: dose 40 mg/kg
Plasmodium berghei [2] = experiment: Antimalarial activity against Plasmodium berghei infected in mouse at 10 mg/kg; parameters: dose 10 mg/kg
Plasmodium berghei [3] = experiment: Antimalarial activity against Plasmodium berghei infected in mouse at 20 mg/kg; parameters: dose 20 mg/kg
Plasmodium berghei [4] = experiment: Antimalarial activity against Plasmodium berghei infected in mouse assessed as complete cure at 160 mg/kg; parameters: dose 160 mg/kg

SMILES	Activity (Plasmodium berghei [1])	Activity (Plasmodium berghei [2])	Activity (Plasmodium berghei [3])	Activity (Plasmodium berghei [4])
Cc1cc(C)c2nc3c(c([C@H]4OC(c5ccc(Cl)cc5)N5CCCC[C@H]45)c2c1)CCC3 (mixture of isomers)	inactive			
CCCCN(CCCC)CC(O)c1c2c(nc3c(C)cc(C)cc13)/C(=C/c1ccc(Cl)cc1)CC2 (stereo not given)	Active	Active		
CCCCN(CCCC)CC(O)c1cc(/C=C/c2ccc(Cl)cc2)nc2c(C)cc(C)cc12 (stereo not given)			Active	Active
